Source: US8846669B2, “Oxazolidinone derivative and medical composition containing same” (Legochem Biosciences, Inc., priority 2011, dated 2014)
≈ marks a conversion by molar mass, not a printed value. Like-named read-outs stand apart in the source and are kept apart here.

Experiments:
Test in all cases: In vitro antibacterial activity, broth microdilution MIC90
Type in all cases: cell-based
Enterococcus faecalis = test system: Enterococcus faecalis
Method: (§1) MIC90 was measured by broth microdilution method based on CLSI standards [reference: Clinical and Laboratory Standards Institute Document. (2000) Methods for Dilution Antimicrobial Susceptibility Test for Bacteria that Grow Aerobically-Fifth Edition: M7-A5. CLSI, Villanova, Pa.].
(§2) Activities of 12 strains including Staphylococcus aureus, Methicillin Resistant Staphylococcus aureus, Staphylococcus epidermidis, Methicillin Resistant Staphylococcus epidermidis, Enterococcus faecalis, Vancomycin Resistant Enterococcus faecalis, Linezolid and Vancomycin Resistant Enterococcus faecalis, Enterococcus faecium, Vancomycin Resistant Enterococcus faecium, Linezolid and Vancomycin Resistant Enterococcus faecium, and Moraxella catarrhalis, were measured, and results are shown in Table 1 below.
(§3) The final concentration of test material in the antibacterial test was from 0.063 μg/mL (minimum) to 128 μg/mL (maximum), and the final concentration of DMSO used as an excipient was 2.5% (V/V). Linezolid represented by Formula B below (manufactured by Pfizer) was used as a control and bacterial activity thereof was compared with those of the test materials.

Enterococcus faecium = test system: Enterococcus faecium
Method: as §1, §2, §3

[1] = test system: Linezolid and Vancomycin Resistant Enterococcus faecalis
Method: as §1, §2, §3

[2] = test system: Linezolid and Vancomycin Resistant Enterococcus faecium (strain 10)
Method: as §1, §2, §3

[3] = test system: Linezolid and Vancomycin Resistant Enterococcus faecium (strain 11)
Method: as §1, §2, §3

[4] = test system: Methicillin Resistant Staphylococcus aureus
Method: as §1, §2, §3

[5] = test system: Methicillin Resistant Staphylococcus epidermidis
Method: as §1, §2, §3

Moraxella catarrhalis = test system: Moraxella catarrhalis
Method: as §1, §2, §3

Staphylococcus aureus = test system: Staphylococcus aureus
Method: as §1, §2, §3

[6] = test system: Staphylococcus epidermidis
Method: as §1, §2, §3

[7] = test system: Vancomycin Resistant Enterococcus faecalis
Method: as §1, §2, §3

[8] = test system: Vancomycin Resistant Enterococcus faecium
Method: as §1, §2, §3

[9] = Enterococcus faecalis, strain 5, E. faecalis, read-out: MIC90
[10] = Enterococcus faecium, strain 8, E. faecium, read-out: MIC90
[11] = Enterococcus faecalis, strain 7, E. faecalis VanA LR, read-out: MIC90
[12] = Enterococcus faecium, strain 10, E. faecium VanA LR, read-out: MIC90
[13] = Enterococcus faecium, strain 11, E. faecium VanA LR, read-out: MIC90
[14] = Staphylococcus aureus, strain 2, S. aureus MR, read-out: MIC90
[15] = Staphylococcus epidermidis, strain 4, S. epidermidis MR, read-out: MIC90
[16] = Moraxella catarrhalis, strain 12, M. catarrhalis, read-out: MIC90
[17] = Staphylococcus aureus, strain 1, S. aureus, read-out: MIC90
[18] = Staphylococcus epidermidis, strain 3, S. epidermidis, read-out: MIC90
[19] = Enterococcus faecalis, strain 6, E. faecalis VanA, read-out: MIC90
[20] = Enterococcus faecium, strain 9, E. faecium VanA, read-out: MIC90

| Structure (SMILES) | MIC90 (Enterococcus faecalis; Enterococcus faecalis) [µg/mL] | MIC90 (Enterococcus faecium; Enterococcus faecium) [µg/mL] | MIC90 ([1]; Enterococcus faecalis) [µg/mL] | MIC90 ([2]; Enterococcus faecium) [µg/mL] | MIC90 ([3]; Enterococcus faecium) [µg/mL] | MIC90 ([4]; Staphylococcus aureus) [µg/mL] | MIC90 ([5]; Staphylococcus epidermidis) [µg/mL] | MIC90 (Staphylococcus aureus; Staphylococcus aureus) [µg/mL] | MIC90 ([6]; Staphylococcus epidermidis) [µg/mL] | MIC90 ([7]; Enterococcus faecalis) [µg/mL] | MIC90 ([8]; Enterococcus faecium) [µg/mL] | other results |
| --- | --- | --- | --- | --- | --- | --- | --- | --- | --- | --- | --- | --- |
| O=C1O[C@@H](CNc2ccon2)CN1c1ccc(-c2ccc(C3=NOCCN3)nc2)c(F)c1 [Compound 67] | – | – | – | – | – | – | – | – | – | – | – | MIC90 (Enterococcus faecalis; strain 5, E. faecalis): 0.5 µg/mL (≈ 1.14 µM); MIC90 (Enterococcus faecium; strain 8, E. faecium): 0.25 µg/mL (≈ 0.57 µM); MIC90 ([1]; strain 7, E. faecalis VanA LR): 2 µg/mL (≈ 4.56 µM); MIC90 ([2]; strain 10, E. faecium VanA LR): 2 µg/mL (≈ 4.56 µM); MIC90 ([3]; strain 11, E. faecium VanA LR): 2 µg/mL (≈ 4.56 µM); MIC90 ([4]; strain 2, S. aureus MR): 0.5 µg/mL (≈ 1.14 µM); MIC90 ([5]; strain 4, S. epidermidis MR): 0.5 µg/mL (≈ 1.14 µM); MIC90 (Moraxella catarrhalis; strain 12, M. catarrhalis): 1 µg/mL (≈ 2.28 µM); MIC90 (Staphylococcus aureus; strain 1, S. aureus): 0.25 µg/mL (≈ 0.57 µM); MIC90 ([6]; strain 3, S. epidermidis): 0.25 µg/mL (≈ 0.57 µM); MIC90 ([7]; strain 6, E. faecalis VanA): 0.5 µg/mL (≈ 1.14 µM); MIC90 ([8]; strain 9, E. faecium VanA): 0.5 µg/mL (≈ 1.14 µM) |
| O=C(CO)N1CCN(c2ccc(-c3ccc(N4C[C@H](Cn5ccnn5)OC4=O)cc3F)cn2)C=N1 [Compound 32] | 0.5 (≈ 1.04 µM) | 0.25 (≈ 0.52 µM) | 2 (≈ 4.16 µM) | 2 (≈ 4.16 µM) | 2 (≈ 4.16 µM) | 1 (≈ 2.08 µM) | 1 (≈ 2.08 µM) | 0.25 (≈ 0.52 µM) | 0.25 (≈ 0.52 µM) | 0.5 (≈ 1.04 µM) | 0.5 (≈ 1.04 µM) | MIC90 (Moraxella catarrhalis; Moraxella catarrhalis): 2 µg/mL (≈ 4.16 µM) |
| O=C1O[C@@H](CNc2ccon2)CN1c1ccc(-c2ccc(N3C=NOCC3)nc2)c(F)c1 [Compound 61] | – | – | – | – | – | – | – | – | – | – | – | MIC90 (Enterococcus faecalis; strain 5, E. faecalis): 0.5 µg/mL (≈ 1.14 µM); MIC90 (Enterococcus faecium; strain 8, E. faecium): 0.25 µg/mL (≈ 0.57 µM); MIC90 ([1]; strain 7, E. faecalis VanA LR): 2 µg/mL (≈ 4.56 µM); MIC90 ([2]; strain 10, E. faecium VanA LR): 2 µg/mL (≈ 4.56 µM); MIC90 ([3]; strain 11, E. faecium VanA LR): 2 µg/mL (≈ 4.56 µM); MIC90 ([4]; strain 2, S. aureus MR): 0.25 µg/mL (≈ 0.57 µM); MIC90 ([5]; strain 4, S. epidermidis MR): 0.5 µg/mL (≈ 1.14 µM); MIC90 (Moraxella catarrhalis; strain 12, M. catarrhalis): 2 µg/mL (≈ 4.56 µM); MIC90 (Staphylococcus aureus; strain 1, S. aureus): 0.063 µg/mL (≈ 0.144 µM); MIC90 ([6]; strain 3, S. epidermidis): 0.25 µg/mL (≈ 0.57 µM); MIC90 ([7]; strain 6, E. faecalis VanA): 0.5 µg/mL (≈ 1.14 µM); MIC90 ([8]; strain 9, E. faecium VanA): 0.5 µg/mL (≈ 1.14 µM) |
| NC(=O)N1CCN(c2ccc(-c3ccc(N4C[C@H](Cn5ccnn5)OC4=O)cc3F)cn2)C=N1 [Compound 33] | 0.25 (≈ 0.537 µM) | 0.125 (≈ 0.269 µM) | 2 (≈ 4.3 µM) | 2 (≈ 4.3 µM) | 2 (≈ 4.3 µM) | 1 (≈ 2.15 µM) | 1 (≈ 2.15 µM) | 0.25 (≈ 0.537 µM) | 0.25 (≈ 0.537 µM) | 0.25 (≈ 0.537 µM) | 0.25 (≈ 0.537 µM) | MIC90 (Moraxella catarrhalis; Moraxella catarrhalis): 2 µg/mL (≈ 4.3 µM) |
| COC(=O)NC[C@H]1CN(c2ccc(-c3ccc(C4=NOCCN4)nc3)c(F)c2)C(=O)O1 [Compound 65] | – | – | – | – | – | – | – | – | – | – | – | MIC90 (Enterococcus faecalis; [9]): 0.5 µg/mL (≈ 1.16 µM); MIC90 (Enterococcus faecium; [10]): 0.5 µg/mL (≈ 1.16 µM); MIC90 [1, 11]: 4 µg/mL (≈ 9.32 µM); MIC90 [2, 12]: 4 µg/mL (≈ 9.32 µM); MIC90 [3, 13]: 4 µg/mL (≈ 9.32 µM); MIC90 [4, 14]: 0.5 µg/mL (≈ 1.16 µM); MIC90 [5, 15]: 1 µg/mL (≈ 2.33 µM); MIC90 (Moraxella catarrhalis; [16]): 2 µg/mL (≈ 4.66 µM); MIC90 (Staphylococcus aureus; [17]): 0.5 µg/mL (≈ 1.16 µM); MIC90 [6, 18]: 0.5 µg/mL (≈ 1.16 µM); MIC90 [7, 19]: 0.5 µg/mL (≈ 1.16 µM); MIC90 [8, 20]: 0.5 µg/mL (≈ 1.16 µM) |
| COC(=O)NC[C@H]1CN(c2ccc(-c3ccc(N4CCON=C4C)nc3)c(F)c2)C(=O)O1 [Compound 63] | – | – | – | – | – | – | – | – | – | – | – | MIC90 (Enterococcus faecalis; [9]): 2 µg/mL (≈ 4.51 µM); MIC90 (Enterococcus faecium; [10]): 1 µg/mL (≈ 2.26 µM); MIC90 [1, 11]: 16 µg/mL (≈ 36.1 µM); MIC90 [2, 12]: 16 µg/mL (≈ 36.1 µM); MIC90 [3, 13]: 16 µg/mL (≈ 36.1 µM); MIC90 [4, 14]: 2 µg/mL (≈ 4.51 µM); MIC90 [5, 15]: 4 µg/mL (≈ 9.02 µM); MIC90 (Moraxella catarrhalis; [16]): 8 µg/mL (≈ 18 µM); MIC90 (Staphylococcus aureus; [17]): 2 µg/mL (≈ 4.51 µM); MIC90 [6, 18]: 1 µg/mL (≈ 2.26 µM); MIC90 [7, 19]: 2 µg/mL (≈ 4.51 µM); MIC90 [8, 20]: 2 µg/mL (≈ 4.51 µM) |
| CCOC(=O)CN1CCN(c2ccc(-c3ccc(N4C[C@H](CNC(C)=O)OC4=O)cc3F)cn2)C=N1 [Compound 5] | 0.5 (≈ 1 µM) | 0.5 (≈ 1 µM) | 2 (≈ 4.01 µM) | 2 (≈ 4.01 µM) | 2 (≈ 4.01 µM) | 1 (≈ 2.01 µM) | 1 (≈ 2.01 µM) | 0.5 (≈ 1 µM) | 0.5 (≈ 1 µM) | 0.5 (≈ 1 µM) | 0.5 (≈ 1 µM) | – |
| C#CCN1C=NN(c2ccc(-c3ccc(N4C[C@H](CNC(C)=O)OC4=O)cc3F)cn2)CC1 [Compound 55] | 1 (≈ 2.22 µM) | 2 (≈ 4.44 µM) | 4 (≈ 8.88 µM) | 4 (≈ 8.88 µM) | 4 (≈ 8.88 µM) | 4 (≈ 8.88 µM) | 4 (≈ 8.88 µM) | 1 (≈ 2.22 µM) | 2 (≈ 4.44 µM) | 2 (≈ 4.44 µM) | 2 (≈ 4.44 µM) | – |
| CC(=O)NC[C@H]1CN(c2ccc(-c3ccc(N4C=NN(CC(=O)O)CC4)nc3)c(F)c2)C(=O)O1 [Compound 10] | 1 (≈ 2.13 µM) | 1 (≈ 2.13 µM) | 8 (≈ 17 µM) | 8 (≈ 17 µM) | 8 (≈ 17 µM) | 2 (≈ 4.25 µM) | 2 (≈ 4.25 µM) | 1 (≈ 2.13 µM) | 1 (≈ 2.13 µM) | 2 (≈ 4.25 µM) | 2 (≈ 4.25 µM) | – |
